Reference: paper PMC4206343, “A Novel Aminothiazole KY-05009 with Potential to Inhibit Traf2- and Nck-Interacting Kinase (TNIK) Attenuates TGF-β1-Mediated Epithelial-to-Mesenchymal Transition in Human Lung Adenocarcinoma A549 Cells” (PLoS ONE, 2014)

Molecular target: Traf2- and Nck-interacting kinase (TNIK) (Homo sapiens, UniProt Q9UKE5)
Assay: ATP competition binding assay (KdELECT, KINOMEscan), triplicate 11-point dose-response curves

Traf2- and Nck-interacting kinase (TNIK), sequence (Q9UKE5 whole entry): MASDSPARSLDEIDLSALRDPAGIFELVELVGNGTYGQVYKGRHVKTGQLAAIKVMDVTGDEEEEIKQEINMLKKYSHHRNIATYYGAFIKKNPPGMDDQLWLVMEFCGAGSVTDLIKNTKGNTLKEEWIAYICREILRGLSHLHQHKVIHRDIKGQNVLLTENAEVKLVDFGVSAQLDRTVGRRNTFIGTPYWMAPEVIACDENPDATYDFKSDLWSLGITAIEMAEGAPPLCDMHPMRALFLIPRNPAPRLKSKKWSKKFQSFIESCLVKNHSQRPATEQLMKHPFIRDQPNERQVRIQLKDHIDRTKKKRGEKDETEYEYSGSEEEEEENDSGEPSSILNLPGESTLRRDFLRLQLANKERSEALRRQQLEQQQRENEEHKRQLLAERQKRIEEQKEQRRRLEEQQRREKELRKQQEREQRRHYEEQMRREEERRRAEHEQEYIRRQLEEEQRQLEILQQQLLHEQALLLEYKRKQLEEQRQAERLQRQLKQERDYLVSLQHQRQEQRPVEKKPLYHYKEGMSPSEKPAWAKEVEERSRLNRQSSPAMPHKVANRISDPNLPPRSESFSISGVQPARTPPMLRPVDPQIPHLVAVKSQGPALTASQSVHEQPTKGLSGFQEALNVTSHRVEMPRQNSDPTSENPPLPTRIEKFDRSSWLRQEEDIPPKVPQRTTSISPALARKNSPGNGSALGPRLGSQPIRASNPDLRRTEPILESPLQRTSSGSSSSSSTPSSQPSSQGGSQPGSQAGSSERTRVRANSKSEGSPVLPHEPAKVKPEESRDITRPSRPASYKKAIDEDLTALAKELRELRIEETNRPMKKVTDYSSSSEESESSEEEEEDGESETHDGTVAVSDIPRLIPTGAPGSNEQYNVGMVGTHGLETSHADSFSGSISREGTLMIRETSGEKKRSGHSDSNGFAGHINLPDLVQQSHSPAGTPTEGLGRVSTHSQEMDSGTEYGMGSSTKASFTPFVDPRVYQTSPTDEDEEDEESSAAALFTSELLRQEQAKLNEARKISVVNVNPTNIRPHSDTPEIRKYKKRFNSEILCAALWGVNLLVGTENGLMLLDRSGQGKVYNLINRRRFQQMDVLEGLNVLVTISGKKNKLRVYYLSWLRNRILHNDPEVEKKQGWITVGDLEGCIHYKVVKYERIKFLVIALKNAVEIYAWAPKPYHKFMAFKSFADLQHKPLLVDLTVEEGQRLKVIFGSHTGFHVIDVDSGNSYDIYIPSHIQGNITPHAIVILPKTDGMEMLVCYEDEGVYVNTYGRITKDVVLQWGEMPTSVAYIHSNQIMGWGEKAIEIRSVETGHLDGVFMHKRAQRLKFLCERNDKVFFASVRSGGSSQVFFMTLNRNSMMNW

Ki: 100 nM
SMILES: Cc1ccc(C(=O)Nc2sc(Nc3ccccc3)nc2C(N)=O)cc1 [KY-05009, 5-(4-methylbenzamido)-2-(phenylamino)thiazole-4-carboxamide]
